The assay concerns the target T1, hKv3.1b (Homo sapiens, UniProt P48547).
T1 construct: expressed in transfected cells
T1 sequence (P48547 1-585 isoform P48547-2): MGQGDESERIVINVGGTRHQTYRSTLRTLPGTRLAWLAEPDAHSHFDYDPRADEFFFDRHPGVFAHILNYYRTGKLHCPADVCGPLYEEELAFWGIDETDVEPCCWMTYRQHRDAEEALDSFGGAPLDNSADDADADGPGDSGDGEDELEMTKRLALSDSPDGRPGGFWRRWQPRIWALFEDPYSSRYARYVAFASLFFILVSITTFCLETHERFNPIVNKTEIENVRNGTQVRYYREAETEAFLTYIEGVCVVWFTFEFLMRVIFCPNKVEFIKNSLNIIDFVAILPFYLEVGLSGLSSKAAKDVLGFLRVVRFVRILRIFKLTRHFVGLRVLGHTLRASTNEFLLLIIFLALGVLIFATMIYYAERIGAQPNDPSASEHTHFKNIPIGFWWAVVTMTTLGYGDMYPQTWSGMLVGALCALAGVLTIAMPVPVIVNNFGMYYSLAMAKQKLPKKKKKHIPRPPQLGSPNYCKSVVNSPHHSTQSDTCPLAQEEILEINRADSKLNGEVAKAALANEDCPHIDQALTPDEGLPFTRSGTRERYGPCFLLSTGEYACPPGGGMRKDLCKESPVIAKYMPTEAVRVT
Briefly: Automated whole-cell patch-clamp (QPatch-16x) on HEK-293 cells stably expressing hKv3.1b: shift of voltage threshold for channel activation. Conditions: HEK-293 hKv3.1b; for ECdelta5mV: concentration needed to shift the threshold 5 mV, read out from fitted concentration response curve; for Max Delta threshold: maximum absolute shift of activation threshold to more hyperpolarized potentials at the tested concentrations (0.37, 1.11, 3.33, 10, 30 μM). It counts as cell-based. A general note: Patch clamp records ionic current or voltage across a cell membrane.

As for `Cc1ccc(S(=O)(=O)n2ccc(C(=O)NCc3nc(C)cs3)n2)cc1` [Compound 61, 1-(4-methylbenzene-1-sulfonyl)-N-[(4-methyl-1,3-thiazol-2-yl)methyl]-1H-pyrazole-3-carboxamide], the ECdelta5mV came out at 2000 nM and the “Max Delta threshold” value is listed as 19 mV.

With `Cc1ccc(S(=O)(=O)n2ccc(C(=O)NCc3cnn(C)c3)n2)cc1` [Compound 62, 1-(4-methylbenzene-1-sulfonyl)-N-[(1-methyl-1H-pyrazol-4-yl)methyl]-1H-pyrazole-3-carboxamide], the ECdelta5mV turned out to be 1600 nM and the “Max Delta threshold” value is given as 25 mV.

In the case of `COc1ccc(S(=O)(=O)n2ccc(C(=O)NCc3cccnc3)n2)cc1` [Compound 64, 1-(4-methoxyphenyl)sulfonyl-N-(3-pyridylmethyl)pyrazole-3-carboxamide], the ECdelta5mV is 1600 nM and the “Max Delta threshold” value is recorded as 24 mV.

With `Cc1cnc(CNC(=O)c2ccn(S(=O)(=O)c3ccc(OC(F)F)cc3)n2)cn1` [Compound 65, 1-[4-(difluoromethoxy)phenyl]sulfonyl-N-[(5-methylpyrazin-2-yl)methyl]pyrazole-3-carboxamide], the ECdelta5mV worked out at 3600 nM and the “Max Delta threshold” value worked out at 25 mV.

As for `Cc1cnc(CNC(=O)c2ccn(S(=O)(=O)c3ccc(F)cc3C)n2)cn1` [Compound 66, 1-(4-fluoro-2-methyl-phenyl)sulfonyl-N-[(5-methylpyrazin-2-yl)methyl]pyrazole-3-carboxamide], the ECdelta5mV is 2400 nM and the “Max Delta threshold” value is 31 mV.

For the compound `Cc1cnc(CNC(=O)c2ccn(S(=O)(=O)c3ccc(Cl)cc3C)n2)cn1` [Compound 67, 1-(4-chloro-2-methyl-phenyl)sulfonyl-N-[(5-methylpyrazin-2-yl)methyl]pyrazole-3-carboxamide], the ECdelta5mV came out at 1100 nM and the “Max Delta threshold” value turned out to be 34 mV.

Consider `COc1ccc(S(=O)(=O)n2ccc(C(=O)NCc3cnc(C)cn3)n2)c(F)c1` [Compound 68, 1-(2-fluoro-4-methoxy-phenyl)sulfonyl-N-[(5-methylpyrazin-2-yl)methyl]pyrazole-3-carboxamide], for which the ECdelta5mV is given as 2400 nM and the “Max Delta threshold” value amounted to 42 mV.

In the case of `Cc1cnc(CNC(=O)c2ccn(S(=O)(=O)c3ccc(F)c(Cl)c3)n2)cn1` [Compound 69, 1-(3-chloro-4-fluoro-phenyl)sulfonyl-N-[(5-methylpyrazin-2-yl)methyl]pyrazole-3-carboxamide], the ECdelta5mV is 4600 nM and the “Max Delta threshold” value is reported as 16 mV.

As for `Cc1cnc(CNC(=O)c2ccn(S(=O)(=O)c3ccc(OC(F)(F)F)cc3)n2)cn1` [Compound 70, N-[(5-methylpyrazin-2-yl)methyl]-1-[4-(trifluoromethoxy)phenyl]sulfonyl-pyrazole-3-carboxamide], the ECdelta5mV was determined as 4000 nM and the “Max Delta threshold” value is reported as 19 mV.

Consider `Cc1cnc(CNC(=O)c2ccn(S(=O)(=O)c3ccc(C(F)F)cc3)n2)cn1` [Compound 71, 1-[4-(difluoromethyl)phenyl]sulfonyl-N-[(5-methylpyrazin-2-yl)methyl]pyrazole-3-carboxamide], for which the ECdelta5mV turned out to be 3500 nM and the “Max Delta threshold” value worked out at 27 mV.

As for `Cc1cnc(CNC(=O)c2ccn(S(=O)(=O)c3ccc(Cl)cc3F)n2)cn1` [Compound 73, 1-(4-chloro-2-fluoro-phenyl)sulfonyl-N-[(5-methylpyrazin-2-yl)methyl]pyrazole-3-carboxamide], the ECdelta5mV came out at 2400 nM and the “Max Delta threshold” value is on record as 33 mV.

Take `COc1ccc(S(=O)(=O)n2ccc(C(=O)NCc3cnc(C)cn3)n2)cc1F` [Compound 74, 1-(3-fluoro-4-methoxy-phenyl)sulfonyl-N-[(5-methylpyrazin-2-yl)methyl]pyrazole-3-carboxamide]: the ECdelta5mV is 3200 nM and the “Max Delta threshold” value came out at 17 mV.
